Reference: patent US20020137929A1, “1 - (3-heterocyclylphenyl) isothiourea, -isourea, -guanidine and -amidine herbicidal agents” (Intellectual Property Department, BASF Aktiengesellschaft, priority 1998, published 2002)

What was measured:
ECHCG (Barnyardgrass) = assay: Postemergence herbicidal evaluation; type: in vivo, Echinochloa crus-galli; details: postemergence
Method in brief: (§1)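 First, seedlings were raised for around two weeks. Next, test material in 50/50 acetone/water containing 0.5% TWEEN 20 was sprayed through a nozzle at 40 psi, equivalent to about 0.0156–0.500 kg/ha. Finally, after 4–5 weeks in the greenhouse, plants were rated 0–9.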

CYPSE (Flatsedge) = assay: Preemergence weed control under flooded paddy conditions; type: in vivo, Cyperus serotinus; details: rated 3-4 weeks after treatment
Method in brief: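 Greenhouse paddy assay. Acetone/water (50/50 v/v) solutions dosed into flood water, equivalent to about 0.0313 to 0.500 kg/ha active ingredient, over seeds planted 0.5 cm deep in silt loam. Score: 0-9 visual, based on stand, vigor, malformation, size and chlorosis, 3 to 4 weeks after treatment.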

[1] = test system: GLXMAW (Soybean, Williams); assay: Postemergence herbicidal evaluation; type: in vivo, Glycine max, (L.) Merr. cv Williams; details: postemergence
Method in brief: as §1

ABUTH (Velvetleaf) = assay: Postemergence herbicidal evaluation; type: in vivo, Abutilon theophrasti; details: postemergence
Method in brief: as §1

ORYSAT (Rice, Tebonnet) = assay: Postemergence herbicidal evaluation; type: in vivo, Oryza sativa, (L.) Tebonnet; details: postemergence
Method in brief: as §1

GALAP (Galium) = assay: Preemergence herbicidal evaluation; type: in vivo, Galium aparine; details: rated 4-5 weeks after treatment, rating scale 0-9
Method in brief: (§2)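 Scores (0–9) reflect visual comparison with control plants for stand, vigor, malformation, size and chlorosis. Compound was applied to the soil after sowing, before emergence, as an aqueous acetone spray (about 0.0156–0.500 kg/ha), and cups were kept in a greenhouse for 4–5 weeks.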

[2] = test system: CHEAL (Lambsquarters, Common); assay: Preemergence herbicidal evaluation; type: in vivo, Chenopodium album; details: rated 4-5 weeks after treatment, rating scale 0-9
Method in brief: as §2

CASOB (Sicklepod) = assay: Preemergence herbicidal evaluation; type: in vivo, Cassia obtusifolia; details: rated 4-5 weeks after treatment, rating scale 0-9
Method in brief: as §2

AMBEL (Ragweed, Common) [3] = assay: Preemergence herbicidal evaluation; type: in vivo, Ambrosia artemisifolia; details: rated 4-5 weeks after treatment, rating scale 0-9
Method in brief: as §2

AMBEL (Ragweed, Common) [4] = assay: Postemergence herbicidal evaluation; type: in vivo, Ambrosia artemisifolia; details: postemergence
Method in brief: as §1

ZEAMX (Corn, Field) = assay: Postemergence herbicidal evaluation; type: in vivo, Zea mays; details: postemergence
Method in brief: as §1

[5] = test system: CHEAL (Lambsquarters, Common); assay: Postemergence herbicidal evaluation; type: in vivo, Chenopodium album; details: postemergence
Method in brief: as §1

Structure (SMILES): Cn1c(C(F)(F)F)cc(=O)n(-c2cc(N=C3SCC(=O)N3Cc3ccc(Cl)c(Cl)c3)c(Cl)cc2F)c1=O [Compound 144, 3-{4-Chloro-5-{[3-(3,4-dichlorobenzyl)-4-oxo-2-thiazolidinylidene]amino}-2-fluorophenyl}-1-methyl-6-(trifluoromethyl)-2,4(1H,3H)-pyrimidinedione]
- Herbicidal rating ECHCG (ECHCG (Barnyardgrass); rate 0.0156 kg/ha): 2.0
- Herbicidal rating ECHCG (ECHCG (Barnyardgrass); rate 0.0313 kg/ha): 3.0
- Herbicidal rating ECHCG (ECHCG (Barnyardgrass); rate 0.0625 kg/ha): 4.0
- herbicidal effect rating, CYPSE (CYPSE (Flatsedge); 0.0313 kg/ha): 7.0
- herbicidal effect rating, CYPSE (CYPSE (Flatsedge); 0.0625 kg/ha): 7.0
- herbicidal effect rating, CYPSE (CYPSE (Flatsedge); 0.1250 kg/ha): 9.0
- herbicidal effect rating, CYPSE (CYPSE (Flatsedge); 0.2500 kg/ha): 9.0
- Herbicidal rating GLXMAW ([1]; rate 0.0156 kg/ha): 5.0
- Herbicidal rating GLXMAW ([1]; rate 0.0313 kg/ha): 5.5
- Herbicidal rating GLXMAW ([1]; rate 0.0625 kg/ha): 6.5
- Herbicidal rating ABUTH (ABUTH (Velvetleaf); rate 0.0156 kg/ha): 9.0
- Herbicidal rating ABUTH (ABUTH (Velvetleaf); rate 0.0313 kg/ha): 9.0
- Herbicidal rating ABUTH (ABUTH (Velvetleaf); rate 0.0625 kg/ha): 9.0
- Herbicidal rating ORYSAT (ORYSAT (Rice, Tebonnet); rate 0.0156 kg/ha): 2.5
- Herbicidal rating ORYSAT (ORYSAT (Rice, Tebonnet); rate 0.0313 kg/ha): 2.5
- Herbicidal rating ORYSAT (ORYSAT (Rice, Tebonnet); rate 0.0625 kg/ha): 3.0
- Preemergence herbicidal rating GALAP (GALAP (Galium); rate 0.0156 kg/ha): 1.0
- Preemergence herbicidal rating GALAP (GALAP (Galium); rate 0.0313 kg/ha): 1.0
- Preemergence herbicidal rating GALAP (GALAP (Galium); rate 0.0625 kg/ha): 1.0
- Preemergence herbicidal rating GALAP (GALAP (Galium); rate 0.1250 kg/ha): 2.0
- Preemergence herbicidal rating GALAP (GALAP (Galium); rate 0.2500 kg/ha): 2.0
- Preemergence herbicidal rating CHEAL ([2]; rate 0.0156 kg/ha): 6.0
- Preemergence herbicidal rating CHEAL ([2]; rate 0.0313 kg/ha): 7.0
- Preemergence herbicidal rating CHEAL ([2]; rate 0.0625 kg/ha): 9.0
- Preemergence herbicidal rating CHEAL ([2]; rate 0.1250 kg/ha): 9.0
- Preemergence herbicidal rating CHEAL ([2]; rate 0.2500 kg/ha): 9.0
- Preemergence herbicidal rating CASOB (CASOB (Sicklepod); rate 0.0156 kg/ha): 0.0
- Preemergence herbicidal rating CASOB (CASOB (Sicklepod); rate 0.0313 kg/ha): 0.0
- Preemergence herbicidal rating CASOB (CASOB (Sicklepod); rate 0.0625 kg/ha): 0.0
- Preemergence herbicidal rating CASOB (CASOB (Sicklepod); rate 0.1250 kg/ha): 1.0
- Preemergence herbicidal rating CASOB (CASOB (Sicklepod); rate 0.2500 kg/ha): 2.0
- Preemergence herbicidal rating AMBEL (AMBEL (Ragweed, Common) [3]; rate 0.0156 kg/ha): 0.0
- Preemergence herbicidal rating AMBEL (AMBEL (Ragweed, Common) [3]; rate 0.0313 kg/ha): 0.0
- Preemergence herbicidal rating AMBEL (AMBEL (Ragweed, Common) [3]; rate 0.0625 kg/ha): 0.0
- Preemergence herbicidal rating AMBEL (AMBEL (Ragweed, Common) [3]; rate 0.1250 kg/ha): 4.0
- Preemergence herbicidal rating AMBEL (AMBEL (Ragweed, Common) [3]; rate 0.2500 kg/ha): 7.0
- Herbicidal rating AMBEL (AMBEL (Ragweed, Common) [4]; rate 0.0156 kg/ha): 7.0
- Herbicidal rating AMBEL (AMBEL (Ragweed, Common) [4]; rate 0.0313 kg/ha): 9.0
- Herbicidal rating AMBEL (AMBEL (Ragweed, Common) [4]; rate 0.0625 kg/ha): 9.0
- Herbicidal rating ZEAMX (ZEAMX (Corn, Field); rate 0.0156 kg/ha): 4.0
- Herbicidal rating ZEAMX (ZEAMX (Corn, Field); rate 0.0313 kg/ha): 4.0
- Herbicidal rating ZEAMX (ZEAMX (Corn, Field); rate 0.0625 kg/ha): 4.5
- Herbicidal rating CHEAL ([5]; rate 0.0156 kg/ha): 7.0
- Herbicidal rating CHEAL ([5]; rate 0.0313 kg/ha): 9.0
- Herbicidal rating CHEAL ([5]; rate 0.0625 kg/ha): 9.0

Structure (SMILES): COc1cc(CN2C(=O)CSC2=Nc2cc(-n3c(=O)cc(C(F)(F)F)n(C)c3=O)c(F)cc2Cl)cc(OC)c1OC [Compound 140, 3-{4-Chloro-2-fluoro-5-{[3-(3,4,5-trimethoxybenzyl)-4-oxo-2-thiazolidinylidene]amino}phenyl}-1-methyl-6-(trifluoromethyl)-2,4(1H,3H)-pyrimidinedione]
- Herbicidal rating ECHCG (ECHCG (Barnyardgrass); rate 0.0156 kg/ha): 0.0
- Herbicidal rating ECHCG (ECHCG (Barnyardgrass); rate 0.0313 kg/ha): 0.0
- Herbicidal rating ECHCG (ECHCG (Barnyardgrass); rate 0.0625 kg/ha): 0.0
- herbicidal effect rating, CYPSE (CYPSE (Flatsedge); 0.0313 kg/ha): 0.0
- herbicidal effect rating, CYPSE (CYPSE (Flatsedge); 0.0625 kg/ha): 0.0
- herbicidal effect rating, CYPSE (CYPSE (Flatsedge); 0.1250 kg/ha): 0.0
- herbicidal effect rating, CYPSE (CYPSE (Flatsedge); 0.2500 kg/ha): 0.0
- Herbicidal rating GLXMAW ([1]; rate 0.0156 kg/ha): 3.5
- Herbicidal rating GLXMAW ([1]; rate 0.0313 kg/ha): 4.5
- Herbicidal rating GLXMAW ([1]; rate 0.0625 kg/ha): 5.5
- Herbicidal rating ABUTH (ABUTH (Velvetleaf); rate 0.0156 kg/ha): 4.0
- Herbicidal rating ABUTH (ABUTH (Velvetleaf); rate 0.0313 kg/ha): 4.0
- Herbicidal rating ABUTH (ABUTH (Velvetleaf); rate 0.0625 kg/ha): 9.0
- Herbicidal rating ORYSAT (ORYSAT (Rice, Tebonnet); rate 0.0156 kg/ha): 0.5
- Herbicidal rating ORYSAT (ORYSAT (Rice, Tebonnet); rate 0.0313 kg/ha): 0.5
- Herbicidal rating ORYSAT (ORYSAT (Rice, Tebonnet); rate 0.0625 kg/ha): 1.5
- Preemergence herbicidal rating GALAP (GALAP (Galium); rate 0.0625 kg/ha): 0.0
- Preemergence herbicidal rating GALAP (GALAP (Galium); rate 0.1250 kg/ha): 0.0
- Preemergence herbicidal rating GALAP (GALAP (Galium); rate 0.2500 kg/ha): 0.0
- Preemergence herbicidal rating CHEAL ([2]; rate 0.0625 kg/ha): 9.0
- Preemergence herbicidal rating CHEAL ([2]; rate 0.1250 kg/ha): 9.0
- Preemergence herbicidal rating CHEAL ([2]; rate 0.2500 kg/ha): 9.0
- Preemergence herbicidal rating CASOB (CASOB (Sicklepod); rate 0.0625 kg/ha): 0.0
- Preemergence herbicidal rating CASOB (CASOB (Sicklepod); rate 0.1250 kg/ha): 0.0
- Preemergence herbicidal rating CASOB (CASOB (Sicklepod); rate 0.2500 kg/ha): 0.0
- Preemergence herbicidal rating AMBEL (AMBEL (Ragweed, Common) [3]; rate 0.0625 kg/ha): 0.0
- Preemergence herbicidal rating AMBEL (AMBEL (Ragweed, Common) [3]; rate 0.1250 kg/ha): 0.0
- Preemergence herbicidal rating AMBEL (AMBEL (Ragweed, Common) [3]; rate 0.2500 kg/ha): 0.0
- Herbicidal rating AMBEL (AMBEL (Ragweed, Common) [4]; rate 0.0156 kg/ha): 2.0
- Herbicidal rating AMBEL (AMBEL (Ragweed, Common) [4]; rate 0.0313 kg/ha): 2.0
- Herbicidal rating AMBEL (AMBEL (Ragweed, Common) [4]; rate 0.0625 kg/ha): 4.0
- Herbicidal rating ZEAMX (ZEAMX (Corn, Field); rate 0.0156 kg/ha): 3.5
- Herbicidal rating ZEAMX (ZEAMX (Corn, Field); rate 0.0313 kg/ha): 4.0
- Herbicidal rating ZEAMX (ZEAMX (Corn, Field); rate 0.0625 kg/ha): 4.0
- Herbicidal rating CHEAL ([5]; rate 0.0156 kg/ha): 3.0
- Herbicidal rating CHEAL ([5]; rate 0.0625 kg/ha): 3.0
